According to patent US8034579B2, “Proteins with enhanced functionality and methods of making novel proteins using circular permutation” (Emory University, priority 2005, dated 2011):

What was measured:
Assay type in all cases: biochemical
[1] = molecular target: T1, Candida antarctica lipase B (CALB), wild type, SEQ ID NO: 2, L1/P317 (Moesziomyces antarcticus, UniProt P41365); assay: Initial rate of hydrolysis of DiFMU octanoate, wild type; settings: kcat/KM (variant)/kcat/KM (wild type)
T1 sequence (P41365 26-342): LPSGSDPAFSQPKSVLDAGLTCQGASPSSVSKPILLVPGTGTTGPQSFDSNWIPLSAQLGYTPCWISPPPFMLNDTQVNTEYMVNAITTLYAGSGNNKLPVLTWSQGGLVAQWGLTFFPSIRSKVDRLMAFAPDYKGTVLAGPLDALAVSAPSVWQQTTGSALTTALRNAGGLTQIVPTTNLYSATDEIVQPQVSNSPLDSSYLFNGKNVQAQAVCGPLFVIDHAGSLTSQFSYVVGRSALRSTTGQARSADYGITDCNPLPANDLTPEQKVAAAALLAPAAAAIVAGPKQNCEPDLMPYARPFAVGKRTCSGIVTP
From the text: (§1) Kinetic analysis of protein variants: To examine the impact of circular permutation on catalysis eleven functional CALB variants with termini in or near the active site were selected for detailed kinetic characterization. The locations of the termini in these variants are shown on the structure of CALB in FIG. 6; the numbers correspond to the amino acid residue of the new terminus. Following overexpression in P. pastoris, the selected circularly permuted proteins were purified to homogeneity. The catalytic performance of these variants was determined in activity assays with two standard lipase substrates, measuring the initial rates of hydrolysis of the chromogenic substrate p-nitrophenol butyrate (pNB) and the fluorogenic substrate 6,8-difluoro-4-methylumbelliferyl (DiFMU) octanoate. […]
(§2) Lipase activity was determined by measuring the initial hydrolysis rate of p-NB and DiFMU octanoate at room temperature on a Synergy-HT microtiterplate reader (Bio-Tek Instruments, Winooski, Vt.). Stock solutions of p-NB (200 mM) and DiFMU octanoate (3 mM) were prepared in DMSO. p-NB hydrolysis over a substrate range of 0-1.6 mM was measured in 50 mM K-phosphate buffer (pH 7.5) at 400 nm ( ? for p-NB=13260 M^1 cm^−1) as described in Bender, M. L. et al., J Am Chem Soc 1968, 90, (1), 201-7, which is hereby incorporated by reference. […]

[2] = molecular target: T2, Candida antarctica lipase B (CALB) circularly permuted variant cp44, G44/T43 (Moesziomyces antarcticus, UniProt P41365); assay: Initial rate of hydrolysis of DiFMU octanoate, cp44
T2 construct: Pichia pastoris, purified
From the text: (§3) Kinetic analysis of protein variants: To examine the impact of circular permutation on catalysis eleven functional CALB variants with termini in or near the active site were selected for detailed kinetic characterization. The locations of the termini in these variants are shown on the structure of CALB in FIG. 6; the numbers correspond to the amino acid residue of the new terminus. Following overexpression in P. pastoris, the selected circularly permuted proteins were purified to homogeneity. The catalytic performance of these variants was determined in activity assays with two standard lipase substrates, measuring the initial rates of hydrolysis of the chromogenic substrate p-nitrophenol butyrate (pNB) and the fluorogenic substrate 6,8-difluoro-4-methylumbelliferyl (DiFMU) octanoate.
(§4) The overexpression and purification of wild type CALB was performed as described in Rotticci-Mulder, J. C. et al., Protein Expr Purif 2001, 21, (3), 386-92, which is hereby incorporated by reference. The same protocol was adopted for the isolation of circular permutation variants of CALB. Briefly, pPIC9-ca/B was linearized by SacI digestion and electroporated into P. pastoris cells (GS115). Aliquots were plated on MD His^− plates and incubated at 30° C. Colonies appeared on plates after 2 days of incubation. A single colony was picked to inoculate 25 ml BMGY medium and the culture was incubated at 30° C. until it reached an OD600 of 2-6. The cells were harvested and resuspended in BMMY medium to an OD600 of 1. Protein expression was induced by addition of methanol to a final concentration of 0.5% (v/v) every 24 hours. After 4 days of incubation, the culture medium containing the lipase was separated from the cells by centrifugation (1500 g, 4° C., 10 min).
(§5) Lipase activity was determined by measuring the initial hydrolysis rate of p-NB and DiFMU octanoate at room temperature on a Synergy-HT microtiterplate reader (Bio-Tek Instruments, Winooski, Vt.). Stock solutions of p-NB (200 mM) and DiFMU octanoate (3 mM) were prepared in DMSO. p-NB hydrolysis over a substrate range of 0-1.6 mM was measured in 50 mM K-phosphate buffer (pH 7.5) at 400 nm ( ? for p-NB=13260 M^1 cm^−1) as described in Bender, M. L. et al., J Am Chem Soc 1968, 90, (1), 201-7, which is hereby incorporated by reference. The rate of DiFMU octanoate hydrolysis was determined by measuring the DiFMU formation over a substrate range of 0-12 μM in 50 mM K-phosphate buffer (pH 7.0) at an excitation/emission wavelength 360/460 nm. Kinetic constants were calculated by fitting the initial rates to the Michaelis-Menten equation using the Origin® software (version 7; OriginLab Corporation).

[3] = molecular target: T3, Candida antarctica lipase B (CALB) circularly permuted variant cp144, His-L144/A141 (Moesziomyces antarcticus, UniProt P41365); assay: Initial rate of hydrolysis of DiFMU octanoate, cp144 (His)
T3 construct: secreted from Pichia pastoris GS115, purified
From the text: as §3, §4, §5

[4] = molecular target: T4, Candida antarctica lipase B (CALB) circularly permuted variant cp144a, L144/A141 (Moesziomyces antarcticus, UniProt P41365); assay: Initial rate of hydrolysis of DiFMU octanoate, cp144a
T4 construct: Pichia pastoris, purified
From the text: as §3, §4
as §5, with “Corporation). […]” for “Corporation).”

[5] = molecular target: T5, Candida antarctica lipase B (CALB) circularly permuted variant cp148, His-A148/L147 (Moesziomyces antarcticus, UniProt P41365); assay: Initial rate of hydrolysis of DiFMU octanoate, cp148 (His)
T5 construct: Pichia pastoris, purified
From the text: as §3, §4, §5

[6] = molecular target: T6, Candida antarctica lipase B (CALB) circularly permuted variant cp148a, A148/L147 (Moesziomyces antarcticus, UniProt P41365); assay: Initial rate of hydrolysis of DiFMU octanoate, cp148a
T6 construct: Pichia pastoris, purified
From the text: as §3, §4
as §5, with “Corporation). […]” for “Corporation).”

[7] = molecular target: T7, Candida antarctica lipase B (CALB) circularly permuted variant cp150, His-S150A/149 (Moesziomyces antarcticus, UniProt P41365); assay: Initial rate of hydrolysis of DiFMU octanoate, cp150 (His)
T7 construct: Pichia pastoris, purified
From the text: as §3, §4, §5

[8] = molecular target: T8, Candida antarctica lipase B (CALB) circularly permuted variant cp150, S150/V149 (Moesziomyces antarcticus, UniProt P41365); assay: Initial rate of hydrolysis of DiFMU octanoate, cp150 (S150/V149)
T8 construct: Pichia pastoris, purified
From the text: as §3, §4
as §5, with “Corporation). […]” for “Corporation).”

[9] = molecular target: T9, Candida antarctica lipase B (CALB) circularly permuted variant cp268, P268/T267 (Moesziomyces antarcticus, UniProt P41365); assay: Initial rate of hydrolysis of DiFMU octanoate, cp268
T9 construct: Pichia pastoris, purified
From the text: as §3, §4, §5
(§6) The present study included ten CALB variants. […]

[10] = molecular target: T1, Candida antarctica lipase B (CALB), wild type, SEQ ID NO: 2, L1/P317; assay: Initial rate of hydrolysis of p-nitrophenol butyrate (pNB), wild type; settings: kcat/KM (variant)/kcat/KM (wild type)
From the text: as §1, §2

[11] = molecular target: T2, Candida antarctica lipase B (CALB) circularly permuted variant cp44, G44/T43; assay: Initial rate of hydrolysis of pNB, cp44
From the text: as §3, §4, §5

[12] = molecular target: T3, Candida antarctica lipase B (CALB) circularly permuted variant cp144, His-L144/A141; assay: Initial rate of hydrolysis of pNB, cp144 (His)
From the text: as §3, §4, §5

[13] = molecular target: T4, Candida antarctica lipase B (CALB) circularly permuted variant cp144a, L144/A141; assay: Initial rate of hydrolysis of pNB, cp144a
From the text: as §3, §4
as §5, with “Corporation). […]” for “Corporation).”

[14] = molecular target: T5, Candida antarctica lipase B (CALB) circularly permuted variant cp148, His-A148/L147; assay: Initial rate of hydrolysis of pNB, cp148 (His)
From the text: as §3, §4, §5

[15] = molecular target: T6, Candida antarctica lipase B (CALB) circularly permuted variant cp148a, A148/L147; assay: Initial rate of hydrolysis of pNB, cp148a
From the text: as §3, §4
as §5, with “Corporation). […]” for “Corporation).”

[16] = molecular target: T10, Candida antarctica lipase B (CALB) circularly permuted variant cp150, His-S150/V149 (Moesziomyces antarcticus, UniProt P41365); assay: Initial rate of hydrolysis of pNB, cp150 (His)
T10 construct: Pichia pastoris, purified
From the text: as §3, §4, §5

[17] = molecular target: T8, Candida antarctica lipase B (CALB) circularly permuted variant cp150, S150/V149; assay: Initial rate of hydrolysis of pNB, cp150 (S150/V149)
From the text: as §3, §4
as §5, with “Corporation). […]” for “Corporation).”

[18] = molecular target: T9, Candida antarctica lipase B (CALB) circularly permuted variant cp268, P268/T267; assay: Initial rate of hydrolysis of pNB, cp268
From the text: as §3, §4, §5, §6

[19] = 50 mM K-phosphate pH 7.0, room temperature
[20] = kcat/KM (variant)/kcat/KM (wild type)
[21] = 50 mM K-phosphate pH 7.5, room temperature

T7 sequence (P41365 26-342, stated change not applied): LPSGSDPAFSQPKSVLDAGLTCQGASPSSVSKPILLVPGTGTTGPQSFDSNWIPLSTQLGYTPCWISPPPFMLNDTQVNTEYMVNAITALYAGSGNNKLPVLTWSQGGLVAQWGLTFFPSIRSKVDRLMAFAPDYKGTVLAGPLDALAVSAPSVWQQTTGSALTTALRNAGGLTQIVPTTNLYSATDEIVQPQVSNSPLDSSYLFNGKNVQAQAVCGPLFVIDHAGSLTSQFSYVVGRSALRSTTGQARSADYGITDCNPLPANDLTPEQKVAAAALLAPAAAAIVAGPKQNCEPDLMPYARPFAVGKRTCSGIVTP

CCCCCCCC(=O)Oc1c(F)cc2c(C)cc(=O)oc2c1F [DiFMU octanoate, 6,8-difluoro-4-methylumbelliferyl octanoate] showed a relative specificity [1] of 1.0, a Km [2, 19] of 5.6 ± 0.8 µM and a relative specificity [2, 20] of 0.13. It also gave a kcat ([2]; pH 7.0, room temperature) of 0.0083 ± 0.00083 s⁻¹, a kcat/KM ([2]; pH 7.0, room temperature) of 1700 M⁻¹ s⁻¹ and a Km [3, 19] of 2 ± 0.5 µM. It also gave a relative specificity [3, 20] of 0.6, a kcat ([3]; pH 7.0, room temperature) of 0.017 ± 0.0017 s⁻¹ and a kcat/KM ([3]; pH 7.0, room temperature) of 8300 M⁻¹ s⁻¹. The Km [4, 19] was 3 ± 0.3 µM, the relative specificity [4, 20] was 0.6 and the kcat ([4]; pH 7.0, room temperature) was 0.025 ± 0.0017 s⁻¹. The kcat/KM ([4]; pH 7.0, room temperature) was 8300 M⁻¹ s⁻¹, the Km [5, 19] was 3.5 ± 0.5 µM and the relative specificity [5, 20] was 0.4. The kcat ([5]; pH 7.0, room temperature) was 0.025 ± 0.0033 s⁻¹, the kcat/KM ([5]; pH 7.0, room temperature) was 5830 M⁻¹ s⁻¹ and the Km [6, 19] was 6.1 ± 0.7 µM. For the same molecule, the relative specificity [6, 20] was 0.7, the kcat ([6]; pH 7.0, room temperature) was 0.0583 ± 0.0033 s⁻¹ and the kcat/KM ([6]; pH 7.0, room temperature) was 9500 M⁻¹ s⁻¹. It also gave a Km [7, 19] of 2.7 ± 0.8 µM, a relative specificity [7, 20] of 1.0 and a kcat ([7]; pH 7.0, room temperature) of 0.035 ± 0.0033 s⁻¹. For the same molecule, the kcat/KM ([7]; pH 7.0, room temperature) was 13000 M⁻¹ s⁻¹, the Km [8, 19] was 5.5 ± 0.9 µM and the relative specificity [8, 20] was 0.5. For the same molecule, the kcat ([8]; pH 7.0, room temperature) was 0.0367 ± 0.0033 s⁻¹, the kcat/KM ([8]; pH 7.0, room temperature) was 6700 M⁻¹ s⁻¹ and the Km [9, 19] was 2.3 ± 0.3 µM. The relative specificity [9, 20] was 15.6, the kcat ([9]; pH 7.0, room temperature) was 0.48 ± 0.0183 s⁻¹ and the kcat/KM ([9]; pH 7.0, room temperature) was 208000 M⁻¹ s⁻¹.
CCCC(=O)Oc1ccc([N+](=O)[O-])cc1 [pNB, p-Nitrophenyl butyrate] showed a relative specificity [10] of 1.0, a Km [11, 21] of 690 ± 90 µM and a relative specificity [11, 20] of 0.01. It also gave a kcat ([11]; pH 7.5, room temperature) of 0.1 ± 0.0083 s⁻¹, a kcat/KM ([11]; pH 7.5, room temperature) of 170 M⁻¹ s⁻¹ and a Km [12, 21] of 550 ± 50 µM. For the same molecule, the relative specificity [12, 20] was 0.4, the kcat ([12]; pH 7.5, room temperature) was 2.97 ± 0.12 s⁻¹ and the kcat/KM ([12]; pH 7.5, room temperature) was 5330 M⁻¹ s⁻¹. For the same molecule, the Km [13, 21] was 820 ± 100 µM, the relative specificity [13, 20] was 0.7 and the kcat ([13]; pH 7.5, room temperature) was 7.25 ± 0.467 s⁻¹. It also gave a kcat/KM ([13]; pH 7.5, room temperature) of 8830 M⁻¹ s⁻¹, a Km [14, 21] of 500 ± 30 µM and a relative specificity [14, 20] of 0.5. For the same molecule, the kcat ([14]; pH 7.5, room temperature) was 2.85 ± 0.067 s⁻¹, the kcat/KM ([14]; pH 7.5, room temperature) was 5670 M⁻¹ s⁻¹ and the Km [15, 21] was 550 ± 70 µM. It also gave a relative specificity [15, 20] of 1.2, a kcat ([15]; pH 7.5, room temperature) of 8.02 ± 0.483 s⁻¹ and a kcat/KM ([15]; pH 7.5, room temperature) of 14500 M⁻¹ s⁻¹. It also gave a Km [16, 21] of 510 ± 90 µM, a relative specificity [16, 20] of 1.4 and a kcat ([16]; pH 7.5, room temperature) of 8.67 ± 0.75 s⁻¹. The kcat/KM ([16]; pH 7.5, room temperature) was 17000 M⁻¹ s⁻¹, the Km [17, 21] was 425 ± 50 µM and the relative specificity [17, 20] was 1.1. For the same molecule, the kcat ([17]; pH 7.5, room temperature) was 5.78 ± 0.267 s⁻¹, the kcat/KM ([17]; pH 7.5, room temperature) was 13700 M⁻¹ s⁻¹ and the Km [18, 21] was 580 ± 90 µM. It also gave a relative specificity [18, 20] of 7.1, a kcat ([18]; pH 7.5, room temperature) of 50.85 ± 3.82 s⁻¹ and a kcat/KM ([18]; pH 7.5, room temperature) of 87700 M⁻¹ s⁻¹.
